Here are results for 2 sequences from patent publication US9657071B2, “IgE peptide vaccine” (NIPPON ZENYAKU KOGYO CO., LTD., priority 2012, dated 2017).

For one assay, the system named is human IgE. Kind of assay: Test using dog (Part 1): IgG antibody against human IgE (ELISA). Particulars: healthy beagles 8 months old, s.c. 1 mg five times at 2-week intervals, no adjuvant. In kind it is in vivo. As to the method:
The peptide (M4-7-11) was concentration-adjusted to 2 mg/mL with saline, dispensed in an amount of 500 μL, and used as a vaccine. […] The vaccine administration method was subcutaneous administration of 1 mg per dose, which was performed five times at 2-week intervals. Another purpose of this test was to study the frequency of administration of the vaccine.
Dog: 4 healthy beagles (8 months old; 2 males and 2 females) were used.
Vaccine: the M4-7-11 peptide was used alone without being conjugated.
Administration method: 1 mg (500 μl, of 2 mg/mL) per dose was subcutaneously administered five times at 2-week intervals.
Evaluation: serum was collected approximately once per week, and an IgG antibody against human IgE was assayed by ELISA. Since dog IgE nonspecifically reacts with an anti-dog IgG antibody, human IgE having no nonspecific reaction was used in ELISA.
Human IgE (Athens Research And Technology, Inc.; IgE, human Myeloma Plasma) was prepared at 1 μg/mL in an immobilization buffer (0.05 M carbonate buffer, pH 9.6), then added at a concentration of 100 μL/well to an ELISA plate, and left overnight at 4° C. The immobilization plate was washed once with PBS-T (0.05%). […] Then, the measurement was performed using a plate reader (Bio-Rad Laboratories, Inc.; model 680) (dual: measurement: 450 nm, control: 570 nm). […]

Another assay deals with mouse IgE. Put plainly: Reactivity of serum of peptide-immunized rabbit with mouse IgE (ELISA). In kind it is in vivo. The note with it: 500 μg peptide + complete adjuvant s.c. As to the method: 2 mL of the 250 μg/mL peptide (a total of 500 μg) used in Example 2 was mixed with an equal amount of a complete adjuvant (a total of 4 mL). Each rabbit was immunized with this mixture by the subcutaneous administration (amount of the peptide: 500 μg) at day 0 and weeks 2, 4, 6, and 8. Blood was collected 5 weeks after the week-8 administration (week 13 counted from day 0). Booster immunization was performed at week 14 counted from day 0, and blood was further collected 2 weeks thereafter (week 16 counted from day 0). Antibody titers in the collected blood were measured by ELISA. The serum of a rabbit that received no peptide was used as a control.
ELISA was performed by the following method: each […] recombinant CH3 solution of dog IgE, human IgE, mouse IgE, dog IgG, and cat IgE was immobilized at a concentration of 100 μL/well (100 ng/well) to a plate. The serum collected from the immunized rabbit was used (×200 to ×102400) as a primary antibody. An enzyme-labeled anti-rabbit IgG antibody (Zymed Laboratories Inc.) was used as a secondary antibody.
For orientation: An ELISA detects its analyte on a solid surface through an enzyme-linked reagent.

Regarding “KKTSVSASQWYTKHHNNATT (listed as Mus musculus) [M4-7-11]”, the “level of the IgG antibody against IgE” value is on record as “confirmed to elevate” in the assay with human IgE and “a rise in the level of the IgG antibody against IgE” in the assay with human IgE (listed as M4-11-17).

Turning to “QEKKTSVSASQWYTKHHNNATTSIT (listed as Mus musculus) [MOUSE CH3-4-17-11]”, in the assay on mouse IgE, the “response of immobilized mouse IgE to peptide-administered rabbit serum” value is listed as “responded”.
